Laboratory results: patent US12568972B2, “Pyridazinol compounds and derivatives, preparation methods, herbicidal compositions and applications thereof” (Qingdao Kingagroot Chemical Compound Co., Ltd., priority 2018, dated 2026)

Experiments:
Assay in all cases: Post-emergence test, weed control effect
Type in all cases: in vivo
Conditions in all cases: after 3 weeks
[1] = tested on: Amaranthus retroflexus
Excerpt: (§1) The activity level standard of harmful plant destruction (i.e. growth inhibition rate) is as follows: • Level 10: completely dead; • Level 9: above 90% growth inhibition rate; • Level 8: above 80% growth inhibition rate; • Level 7: above 70% growth inhibition rate; • Level 6: above 60% growth inhibition rate; • Level 5: above 50% growth inhibition rate; • Level 4: above 40% growth inhibition rate; • Level 3: above 30% growth inhibition rate; • Level 2: above 20% growth inhibition rate; • Level 1: below 20% growth inhibition rate; • Level 0: no effect.
(§2) The above described growth inhibition rates are fresh weight inhibition rates.
(§3) Experiment of post-emergence test: monocotyledonous and dicotyledonous weed seeds as well as main crop seeds (i.e., wheat, corn, rice, soybean, cotton, oilseed rape, millet and sorghum) were put into a plastic pot loaded with soil, then covered with 0.5-2 cm of soil, and the seeds were allowed to grow in good greenhouse environment. The test plants were treated at 2-3 leaf stage 2-3 weeks after sowing. The test compounds of the invention were dissolved in acetone respectively, then added with Tween-80 and diluted by a certain amount of water to give solutions with certain concentrations, and added with 80% vegetable oil methyl ester synergist at 1500 g/ha. The solution was sprayed to the plants with a sprayer. The plants were cultured for 3 weeks in the greenhouse.

[2] = tested on: Chenopodiaceae
Excerpt: as §1, §2, §3

[3] = tested on: Rorippa indica
Excerpt: as §1, §2, §3

[4] = tested on: Veronica polita
Excerpt: as §1, §2, §3

SMILES: N#Cc1ncccc1-c1nnc(C(F)(F)F)cc1O [Compound 979]
- weed control effect (activity level), Amaranthus retroflexus ([1]; Dose 3000 g/ha): 10
- weed control effect (activity level), Chenopodiaceae ([2]; Dose 3000 g/ha): 10
- weed control effect (activity level), Rorippa indica ([3]; Dose 3000 g/ha): 10
- weed control effect (activity level), Veronica polita ([4]; Dose 3000 g/ha): 10

SMILES: O=C(Oc1cc(C(F)(F)F)nnc1-c1ccc(F)cc1)N1CCOCC1 [Compound 1-68]
- weed control effect, Amaranthus retroflexus (activity level) ([1]; Dose 3000 g/ha): 10
- weed control effect, Chenopodiaceae (activity level) ([2]; Dose 3000 g/ha): 10
- weed control effect, Rorippa indica (activity level) ([3]; Dose 3000 g/ha): 10
- weed control effect, Veronica polita (activity level) ([4]; Dose 3000 g/ha): 10

SMILES: Oc1cc(C(F)(F)F)nnc1-c1ccccc1F [Compound 26]
- weed control effect (activity level), Amaranthus retroflexus ([1]; dose 1000 g/ha): 10
- weed control effect (activity level), Chenopodiaceae ([2]; dose 1000 g/ha): 10
- weed control effect (activity level), Rorippa indica ([3]; dose 1000 g/ha): 10
- weed control effect (activity level), Veronica polita ([4]; dose 1000 g/ha): 10

SMILES: Oc1cc(C(F)(F)F)nnc1-c1cnc(Cl)c(Cl)c1 [Compound 994]
- weed control effect (activity level), Amaranthus retroflexus ([1]; Dose 3000 g/ha): 10
- weed control effect (activity level), Chenopodiaceae ([2]; Dose 3000 g/ha): 10
- weed control effect (activity level), Rorippa indica ([3]; Dose 3000 g/ha): 10
- weed control effect (activity level), Veronica polita ([4]; Dose 3000 g/ha): 10

SMILES: Oc1cc(C(F)(F)F)nnc1-c1cncc(F)c1F [Compound 990]
- weed control effect (activity level), Amaranthus retroflexus ([1]; Dose 3000 g/ha): 10
- weed control effect (activity level), Chenopodiaceae ([2]; Dose 3000 g/ha): 10
- weed control effect (activity level), Rorippa indica ([3]; Dose 3000 g/ha): 10
- weed control effect (activity level), Veronica polita ([4]; Dose 3000 g/ha): 10

SMILES: COc1c(C)ccc(F)c1-c1nnc(C(F)(F)F)cc1O [Compound 62]
- weed control effect (activity level), Amaranthus retroflexus ([1]; dose 1000 g/ha): 10
- weed control effect (activity level), Chenopodiaceae ([2]; dose 1000 g/ha): 10
- weed control effect (activity level), Rorippa indica ([3]; dose 1000 g/ha): 10
- weed control effect (activity level), Veronica polita ([4]; dose 1000 g/ha): 10

SMILES: O=S(=O)(Oc1cc(C(F)(F)F)nnc1-c1ccc(F)c(F)c1)c1ccc(C(F)(F)F)cc1 [Compound 1-129]
- weed control effect, Amaranthus retroflexus (activity level) ([1]; Dose 3000 g/ha): 10
- weed control effect, Chenopodiaceae (activity level) ([2]; Dose 3000 g/ha): 10
- weed control effect, Rorippa indica (activity level) ([3]; Dose 3000 g/ha): 10
- weed control effect, Veronica polita (activity level) ([4]; Dose 3000 g/ha): 10

SMILES: Oc1cc(C(F)(F)F)nnc1-c1cc(Cl)ncc1Cl [Compound 224]
- weed control effect (activity level), Amaranthus retroflexus ([1]; dose 2000 g/ha): 10
- weed control effect (activity level), Chenopodiaceae ([2]; dose 2000 g/ha): 10
- weed control effect (activity level), Rorippa indica ([3]; dose 2000 g/ha): 10
- weed control effect (activity level), Veronica polita ([4]; dose 2000 g/ha): 10

SMILES: Oc1cc(C(F)(F)F)nnc1-c1ccc(Cl)nc1F [Compound 997]
- weed control effect (activity level), Amaranthus retroflexus ([1]; Dose 3000 g/ha): 10
- weed control effect (activity level), Chenopodiaceae ([2]; Dose 3000 g/ha): 10
- weed control effect (activity level), Rorippa indica ([3]; Dose 3000 g/ha): 10
- weed control effect (activity level), Veronica polita ([4]; Dose 3000 g/ha): 10

SMILES: O=S(=O)(Oc1cc(C(F)(F)F)nnc1-c1ccc(F)c(F)c1)c1ccc2ncsc2c1 [Compound 1-147]
- weed control effect, Amaranthus retroflexus (activity level) ([1]; Dose 3000 g/ha): 10
- weed control effect, Chenopodiaceae (activity level) ([2]; Dose 3000 g/ha): 10
- weed control effect, Rorippa indica (activity level) ([3]; Dose 3000 g/ha): 10
- weed control effect, Veronica polita (activity level) ([4]; Dose 3000 g/ha): 10

SMILES: CC(=O)c1cccc(S(=O)(=O)Oc2cc(C(F)(F)F)nnc2-c2ccccc2)c1 [Compound 1-140]
- weed control effect, Amaranthus retroflexus (activity level) ([1]; Dose 3000 g/ha): 10
- weed control effect, Chenopodiaceae (activity level) ([2]; Dose 3000 g/ha): 10
- weed control effect, Rorippa indica (activity level) ([3]; Dose 3000 g/ha): 10
- weed control effect, Veronica polita (activity level) ([4]; Dose 3000 g/ha): 10

SMILES: O=C(Oc1cc(C(F)(F)F)nnc1-c1ccc(Cl)cc1)c1cc(Cl)nc(Cl)n1 [Compound 1-111]
- weed control effect, Amaranthus retroflexus (activity level) ([1]; Dose 3000 g/ha): 10
- weed control effect, Chenopodiaceae (activity level) ([2]; Dose 3000 g/ha): 10
- weed control effect, Rorippa indica (activity level) ([3]; Dose 3000 g/ha): 10
- weed control effect, Veronica polita (activity level) ([4]; Dose 3000 g/ha): 10

SMILES: Oc1cc(C(F)(F)F)nnc1-c1cnccc1Cl [Compound 204]
- weed control effect (activity level), Amaranthus retroflexus ([1]; dose 2000 g/ha): 10
- weed control effect (activity level), Chenopodiaceae ([2]; dose 2000 g/ha): 10
- weed control effect (activity level), Rorippa indica ([3]; dose 2000 g/ha): 10
- weed control effect (activity level), Veronica polita ([4]; dose 2000 g/ha): 10

SMILES: Oc1cc(C(F)(F)F)nnc1-c1cc(Cl)cc(Cl)c1 [Compound 40]
- weed control effect (activity level), Amaranthus retroflexus ([1]; dose 1000 g/ha): 10
- weed control effect (activity level), Chenopodiaceae ([2]; dose 1000 g/ha): 10
- weed control effect (activity level), Rorippa indica ([3]; dose 1000 g/ha): 10
- weed control effect (activity level), Veronica polita ([4]; dose 1000 g/ha): 10

SMILES: Cc1ccc(-c2nnc(C(F)(F)F)cc2O)cc1 [Compound 4]
- weed control effect (activity level), Amaranthus retroflexus ([1]; dose 2000 g/ha): 10
- weed control effect (activity level), Chenopodiaceae ([2]; dose 2000 g/ha): 8 (Level 8: above 80% growth inhibition rate)
- weed control effect (activity level), Rorippa indica ([3]; dose 2000 g/ha): 10
- weed control effect (activity level), Veronica polita ([4]; dose 2000 g/ha): 10

SMILES: Cn1ncc(C#N)c1-c1nnc(C(F)(F)F)cc1O [Compound 820]
- weed control effect (activity level), Amaranthus retroflexus ([1]; Dose 3000 g/ha): 10
- weed control effect (activity level), Chenopodiaceae ([2]; Dose 3000 g/ha): 10
- weed control effect (activity level), Rorippa indica ([3]; Dose 3000 g/ha): 10
- weed control effect (activity level), Veronica polita ([4]; Dose 3000 g/ha): 10

SMILES: O=C1CCCCN1C(=O)Oc1cc(C(F)(F)F)nnc1-c1ccc(F)cc1 [Compound 1-69]
- weed control effect, Amaranthus retroflexus (activity level) ([1]; Dose 3000 g/ha): 10
- weed control effect, Chenopodiaceae (activity level) ([2]; Dose 3000 g/ha): 10
- weed control effect, Rorippa indica (activity level) ([3]; Dose 3000 g/ha): 10
- weed control effect, Veronica polita (activity level) ([4]; Dose 3000 g/ha): 10

SMILES: CCOc1cnn(C)c1-c1nnc(C(F)(F)F)cc1O [Compound 812]
- weed control effect (activity level), Amaranthus retroflexus ([1]; Dose 3000 g/ha): 10
- weed control effect (activity level), Chenopodiaceae ([2]; Dose 3000 g/ha): 10
- weed control effect (activity level), Rorippa indica ([3]; Dose 3000 g/ha): 10
- weed control effect (activity level), Veronica polita ([4]; Dose 3000 g/ha): 10

SMILES: CC(C)n1nc(F)cc1-c1nnc(C(F)(F)F)cc1O [Compound 830]
- weed control effect (activity level), Amaranthus retroflexus ([1]; Dose 3000 g/ha): 10
- weed control effect (activity level), Chenopodiaceae ([2]; Dose 3000 g/ha): 10
- weed control effect (activity level), Rorippa indica ([3]; Dose 3000 g/ha): 10
- weed control effect (activity level), Veronica polita ([4]; Dose 3000 g/ha): 10

SMILES: Oc1cc(C(F)(F)F)nnc1-c1ccccn1 [Compound 263]
- weed control effect (activity level), Amaranthus retroflexus ([1]; dose 2000 g/ha): 10
- weed control effect (activity level), Chenopodiaceae ([2]; dose 2000 g/ha): 10
- weed control effect (activity level), Rorippa indica ([3]; dose 2000 g/ha): 10
- weed control effect (activity level), Veronica polita ([4]; dose 2000 g/ha): 10

SMILES: O=C(Oc1cc(C(F)(F)F)nnc1-c1ccc(F)c(F)c1)c1cc2ccccc2o1 [Compound 1-120]
- weed control effect, Amaranthus retroflexus (activity level) ([1]; Dose 3000 g/ha): 10
- weed control effect, Chenopodiaceae (activity level) ([2]; Dose 3000 g/ha): 10
- weed control effect, Rorippa indica (activity level) ([3]; Dose 3000 g/ha): 10
- weed control effect, Veronica polita (activity level) ([4]; Dose 3000 g/ha): 10

SMILES: C#Cc1ccc(-c2nnc(C(F)(F)F)cc2O)nn1 [Compound 349]
- weed control effect (activity level), Amaranthus retroflexus ([1]; dose 2000 g/ha): 10
- weed control effect (activity level), Chenopodiaceae ([2]; dose 2000 g/ha): 10
- weed control effect (activity level), Rorippa indica ([3]; dose 2000 g/ha): 10
- weed control effect (activity level), Veronica polita ([4]; dose 2000 g/ha): 10

SMILES: COc1ccc(F)cc1-c1nnc(C(F)(F)F)cc1O [Compound 60]
- weed control effect (activity level), Amaranthus retroflexus ([1]; dose 1000 g/ha): 10
- weed control effect (activity level), Chenopodiaceae ([2]; dose 1000 g/ha): 10
- weed control effect (activity level), Rorippa indica ([3]; dose 1000 g/ha): 10
- weed control effect (activity level), Veronica polita ([4]; dose 1000 g/ha): 10

SMILES: COc1ccc(-c2nnc(C(F)(F)F)cc2O)cn1 [Compound 226]
- weed control effect (activity level), Amaranthus retroflexus ([1]; dose 2000 g/ha): 10
- weed control effect (activity level), Chenopodiaceae ([2]; dose 2000 g/ha): 10
- weed control effect (activity level), Rorippa indica ([3]; dose 2000 g/ha): 10
- weed control effect (activity level), Veronica polita ([4]; dose 2000 g/ha): 10

SMILES: Cc1ccc(S(=O)(=O)Oc2cc(C(F)(F)F)nnc2-c2ccc(F)c(F)c2)cc1 [Compound 1-127]
- weed control effect, Amaranthus retroflexus (activity level) ([1]; Dose 3000 g/ha): 10
- weed control effect, Chenopodiaceae (activity level) ([2]; Dose 3000 g/ha): 10
- weed control effect, Rorippa indica (activity level) ([3]; Dose 3000 g/ha): 10
- weed control effect, Veronica polita (activity level) ([4]; Dose 3000 g/ha): 10

SMILES: O=[N+]([O-])c1cc(-c2nnc(C(F)(F)F)cc2O)ccc1F [Compound 66]
- weed control effect (activity level), Amaranthus retroflexus ([1]; dose 1000 g/ha): 10
- weed control effect (activity level), Chenopodiaceae ([2]; dose 1000 g/ha): 10
- weed control effect (activity level), Rorippa indica ([3]; dose 1000 g/ha): 10
- weed control effect (activity level), Veronica polita ([4]; dose 1000 g/ha): 10

SMILES: Oc1cc(C(F)(F)F)nnc1-c1ccc(C(F)(F)F)nc1 [Compound 762]
- weed control effect (activity level), Amaranthus retroflexus ([1]; Dose 3000 g/ha): 10
- weed control effect (activity level), Chenopodiaceae ([2]; Dose 3000 g/ha): 10
- weed control effect (activity level), Rorippa indica ([3]; Dose 3000 g/ha): 10
- weed control effect (activity level), Veronica polita ([4]; Dose 3000 g/ha): 10

SMILES: COC(=O)/C=C/c1nnc(C(F)(F)F)cc1O [Compound 1522]
- weed control effect (activity level), Amaranthus retroflexus ([1]; Dose 3000 g/ha): 10
- weed control effect (activity level), Chenopodiaceae ([2]; Dose 3000 g/ha): 10
